Laboratory results: patent US9447075B2, “Pyridazine derivatives as EAAT2 activators” (The Brigham and Women's Hospital, Inc., priority 2011, dated 2016)
“And” between values parts separate entries of the source, which are not always exact repeats. Equal values may be shown once.

System: EAAT2
Assay: EAAT2 protein levels in PA-EAAT2 cells by Western blot
Assay type: cell-based, human
Details: for Improvement of potency/activity compared to 1: compared to compound 1, Table 4; for Fold increase for EAAT2, 4 h / Fold increase for EAAT2, 24 h: compound 10 μM, PA-EAAT2 cells, relative to DMSO controls, na = not active; for Fold increase for EAAT2, 4 h: 4 h incubation; for Fold increase for EAAT2, 24 h: 24 h incubation; for SAR comparison of activity on EAAT2 protein levels, in words: relative to parent/comparator analogue, Tables 1-4
Method: All of the derivates of 1 were initially evaluated in PA-EAAT2 cells^3 (a primary astrocyte line stably expressing EAAT2 mRNAs) following compound (10 μM) incubation for 4 and 24 h before harvesting and measuring EAAT2 levels by Western blot analysis. The fold increases in EAAT2 protein levels relative to DMSO controls are reported (Tables 1-4).
Characterization and efficacy studies of a compound, Compound 212320 (FIG. 6A) is shown. […] In the absence of serum, PA-EAAT2 cells express low amounts of EAAT2 protein, although the recombinant EAAT2 mRNA are expressed (translational silencing); however, EAAT2 protein levels are increased when an activator is added to the culture (translational activation). This cell line was used for high-throughput screening to identify EAAT2 translational activators. To prioritize candidate compounds, we initially evaluated activation of EAAT2 protein in PA-EAAT2 cells. Promising compounds were further evaluated in primary dissociated neuron and astrocyte mixed cultures and then in mice. FIG. 6 presents the characterization of Compound 212320 in PA-EAAT2 cells. Compound 212320 increased EAAT2 protein levels in a dose—(FIG. 6B) and time—(FIG. 6C) dependent manner. Importantly, the induction occurred in a short amount of time (within 1-2 hr) and was sustained even up to 72 hr (data not show). Additionally, induction occurred at low nanomolar concentrations. […] (FIG. 6D).

Row | SMILES | Improvement of potency/activity compared to 1 | Fold increase for EAAT2, 4 h | Fold increase for EAAT2, 24 h | EAAT2 protein levels, dose dependence (after 24 h exposure) | SAR comparison of activity on EAAT2 protein levels, in words
1 | CC(Sc1ccc(-c2ccccn2)nn1)c1c(F)cccc1Cl (racemic) [Compound 7-14] | about 3 fold | 1.7 ± 0.9 fold | 5.5 ± 1.0 fold | – | –
2 | c1ccc(-c2ccc(SC3CCCc4ccccc43)nn2)nc1 (racemic) [Compound 7-33] | about 3 fold | – | 5.3 ± 1.1 fold | – | –
3 | CC(Oc1ccc(-c2ccccn2)nn1)c1c(F)cccc1Cl (racemic) [Compound 8-4] | – | 1.6 ± 0.2 fold | 3.0 ± 0.7 fold | – | –
4 | Fc1cccc(Cl)c1CSc1ccc(-c2ccccn2)nn1 [Compound 1] | – | – | 2.0 ± 0.8 fold | dose-dependent increase | –
5 | Oc1ccc(-c2ccccn2)nn1 [Compound 5-1] | – | 1.5 ± 0.5 fold | 1.6 ± 1.0 fold | – | –
6 | Sc1ccc(-c2ccccn2)nn1 [Compound 6-1] | – | – | 2.0 ± 0.8 fold | – | essentially the same potency as 1
7 | Fc1cccc(Cl)c1CSc1ccc(-c2cccnc2)nn1 [Compound 7-1] | – | – | 2.3 ± 0.8 fold | – | reduced activity
8 | Fc1cccc(Cl)c1CSc1ccc(-c2ccncc2)nn1 [Compound 7-2] | – | – | 1.9 ± 0.9 fold | – | reduced activity
9 | Cc1ccc(-c2ccc(SCc3c(F)cccc3Cl)nn2)cc1 [Compound 7-3] | – | 1.2 ± 0.2 fold | 2.3 ± 0.7 fold | – | –
10 | Cc1ccccc1CSc1ccc(-c2cccnc2)nn1 [Compound 7-5] | – | 1.5 ± 0.4 fold | – | – | reduced activity
11 | Cc1ccccc1CSc1ccc(-c2ccccc2)nn1 [Compound 7-6] | – | 1.1 ± 0.1 fold | 2.0 ± 0.4 fold | – | reduced activity
12 | Clc1ccccc1CSc1ccc(-c2ccccn2)nn1 [Compound 7-7] | two-fold | 2.1 ± 1.4 fold | 4.0 ± 0.3 fold | – | –
13 | Clc1ccccc1CSc1ccc(-c2cccnc2)nn1 [Compound 7-8] | – | 1.2 ± 0.4 fold | 1.2 ± 0.3 fold | – | reduced activity
14 | Clc1ccccc1CSc1ccc(-c2ccncc2)nn1 [Compound 7-9] | – | 1.5 ± 0.2 fold | 1.7 ± 0.3 fold | – | reduced activity
15 | Cc1ccc(CSc2ccc(-c3ccccn3)nn2)cc1 [Compound 7-10] | – | 2.1 ± 1.1 fold | 2.6 ± 0.4 fold | – | –
16 | Cc1ccc(CSc2ccc(-c3ccncc3)nn2)cc1 [Compound 7-11] | – | 1.3 ± 0.1 fold | 2.4 ± 0.6 fold | – | reduced activity
17 | c1ccc(CSc2ccc(-c3ccccn3)nn2)cc1 [Compound 7-12] | – | 1.3 ± 0.2 fold | 3.0 ± 0.4 fold and 3.0 ± 0.5 fold | – | essentially the same potency as 1
18 | Cc1cccc(C)c1CSc1ccc(-c2ccccn2)nn1 [Compound 7-13] | – | – | 6.5 ± 1.0 fold | – | increased potency

Row | SMILES | Improvement of potency/activity compared to 1 | Fold increase for EAAT2, 4 h | Fold increase for EAAT2, 24 h | EAAT2 protein levels, dose dependence (after 24 h exposure) | SAR comparison of activity on EAAT2 protein levels, in words
19 | Fc1cccc(Cl)c1CCSc1ccc(-c2ccccn2)nn1 [Compound 7-15] | – | 1.9 ± 0.7 fold | 6.7 ± 1.5 fold | – | more potent
20 | Fc1ccc(CSc2ccc(-c3ccccn3)nn2)c(F)c1 [Compound 7-16] | – | 2.4 ± 1.5 fold | 3.8 ± 0.8 fold | – | improved activity
21 | Cc1ccc(CSc2ccc(-c3ccccn3)nn2)c(C)c1 [Compound 7-17] | – | 1.9 ± 0.8 fold | 6.4 ± 1.0 fold | – | increased potency
22 | Clc1cccc(CSc2ccc(-c3ccccn3)nn2)c1 [Compound 7-18] | two-fold | 2.1 ± 0.3 fold | 4.1 ± 0.5 fold | – | –
23 | Clc1cccc(CSc2ccc(-c3ccccn3)nn2)c1Cl [Compound 7-19] | – | – | 2.4 ± 0.4 fold | – | equivalent to 1
24 | Clc1ccc(Cl)c(CSc2ccc(-c3ccccn3)nn2)c1 [Compound 7-20] | – | 1.4 ± 0.1 fold | 2.5 ± 0.4 fold | – | equivalent to 1
25 | Clc1ccc(CSc2ccc(-c3ccccn3)nn2)c(Cl)c1 [Compound 7-21] | – | 1.8 ± 0.5 fold | – | – | equivalent to 1
26 | Clc1cccc(Cl)c1CSc1ccc(-c2ccccn2)nn1 [Compound 7-22] | two-fold | 1.5 ± 0.8 fold | 3.9 ± 0.4 fold | – | –
27 | Fc1ccccc1CSc1ccc(-c2ccccn2)nn1 [Compound 7-23] | – | 2.2 ± 0.1 fold | 3.1 ± 0.2 fold | – | improved activity
28 | Fc1ccc(CSc2ccc(-c3ccccn3)nn2)cc1 [Compound 7-24] | – | 2.5 ± 0.6 fold | 2.6 ± 0.3 fold | – | did not result in significant improvement
29 | Fc1cccc(F)c1CSc1ccc(-c2ccccn2)nn1 [Compound 7-25] | – | 2.1 ± 1.4 fold | 2.2 ± 0.7 fold | – | did not result in significant improvement
30 | Fc1cc(F)c(CSc2ccc(-c3ccccn3)nn2)c(F)c1 [Compound 7-26] | – | 1.6 ± 1.0 fold | 2.4 ± 0.6 fold | – | did not result in significant improvement
31 | Cc1cccc(CSc2ccc(-c3ccccn3)nn2)c1 [Compound 7-27] | – | 2.0 ± 0.2 fold | 2.8 ± 0.5 fold | – | less potent
32 | Cc1ccc(CSc2ccc(-c3ccccn3)nn2)cc1 [Compound 7-28] | – | – | – | – | less potent
33 | Cc1ccc(Sc2ccc(-c3ccccn3)nn2)c(C)c1 [Compound 7-29] | – | 1.2 ± 0.3 fold | 2.2 ± 0.3 fold | – | decreased potency
34 | Cc1cc(C)c(CSc2ccc(-c3ccccn3)nn2)c(C)c1 [Compound 7-30] | – | 1.7 ± 0.3 fold | 4.7 ± 0.5 fold | – | increased potency
35 | Clc1ccccc1CCSc1ccc(-c2ccccn2)nn1 [Compound 7-31] | – | 1.7 ± 0.2 fold | 4.8 ± 0.6 fold | – | more potent
